In one assay the test system is CSF1R (M-NFS-60 cells). Description: Cell Titer-Glo viability assay using M-NFS-60 cells. It counts as cell-based. To be noted: Mus musculus, read-out: Cellular CSF1R activity by M-NFS-60 viability assay (IC50 activity range). The protocol: M-NFS-60 cells were cultured in RPMI-1640 medium containing 10% FBS, 0.05 mM 2-Mercaptoethanol, penicillin (100 U/ml)/streptomycin ([…]) and supplemented with 62 ng/ml recombinant human M-CSF at 37° C./5% CO2. Aliquots of the cells were seeded into a 96-well plate (2×10^5 cells in 100 μl/well) and then incubated at 37° C./5% CO2 1 h. Dissolve compound in 100% DMSO to make 10 mM stock solutions (Aliquots stored in the Nitrogen Cabinet). Dilute 10 mM compounds solutions for 2-fold in 100% DMSO to get 5 mM solutions (10 μl+10 μl DMSO), and then make a 3-fold serial dilution (10 μl+20 μl DMSO) for 10 doses. For reference compounds: Dilute 10 mM compounds solutions for 20-fold in 100% DMSO to get 0.5 mM solutions (2 μl+38 μl DMSO), and then make a 3-fold serial dilution (10 μl+20 μl DMSO) for 8 doses. The 96-well plate was equilibrated at room temperature for 30 min. 50 μl of CellTiter-Glo® Reagent added to each well and mixed for 2 min on an orbital shaker to induce cell lysis. The 96-well plate was incubated at room temperature for 10 min to stabilize luminescent signal. Luminescent was measured […] by EnVison plate reader. Calculations and Formulas: The following calculations and formulas are used for data analysis using XL Fit software: The curve fitting was made using the Sigmoidal Dose-Response Model (Fit model, 205).
In general terms: In ATP-based viability assays light output follows the ATP content of the culture.

Another assay concerns the target T1, Axl (Homo sapiens, UniProt P30530).
T1 sequence (P30530 26-894): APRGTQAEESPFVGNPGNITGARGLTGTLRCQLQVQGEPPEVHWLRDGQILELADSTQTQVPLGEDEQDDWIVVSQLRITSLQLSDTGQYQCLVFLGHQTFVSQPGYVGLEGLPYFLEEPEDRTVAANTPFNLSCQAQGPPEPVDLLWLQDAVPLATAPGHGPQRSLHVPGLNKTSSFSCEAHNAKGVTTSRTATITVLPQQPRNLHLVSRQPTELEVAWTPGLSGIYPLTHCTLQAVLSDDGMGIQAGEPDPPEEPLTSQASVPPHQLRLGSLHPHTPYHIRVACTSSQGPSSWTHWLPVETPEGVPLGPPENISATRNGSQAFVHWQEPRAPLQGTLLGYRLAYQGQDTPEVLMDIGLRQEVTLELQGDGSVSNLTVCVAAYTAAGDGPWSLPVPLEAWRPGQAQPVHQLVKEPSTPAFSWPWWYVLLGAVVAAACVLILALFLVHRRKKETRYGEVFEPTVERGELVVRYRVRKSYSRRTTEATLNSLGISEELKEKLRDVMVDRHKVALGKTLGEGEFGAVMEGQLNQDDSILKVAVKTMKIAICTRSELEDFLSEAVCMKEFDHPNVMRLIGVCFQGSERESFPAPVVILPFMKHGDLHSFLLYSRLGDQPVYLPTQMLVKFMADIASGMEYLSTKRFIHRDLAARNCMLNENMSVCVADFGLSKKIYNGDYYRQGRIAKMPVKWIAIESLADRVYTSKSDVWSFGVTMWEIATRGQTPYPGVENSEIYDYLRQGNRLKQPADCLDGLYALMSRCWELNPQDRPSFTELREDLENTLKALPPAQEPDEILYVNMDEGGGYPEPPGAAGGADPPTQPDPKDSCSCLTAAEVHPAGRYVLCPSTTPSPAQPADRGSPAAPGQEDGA
The experiment in a line: Cellular Axl inhibition ELISA (p-Axl, Gas6-induced) using H1299 cells. It counts as cell-based. Set-up: especially H1299 cell endogenously expresses Axl; endogenous in cells; host or cells: H1299. The protocol: Axl is expressed in several of malignant cancer cells; especially H1299 cell endogenously expresses Axl; and an increased phosphorylation of Axl (p-Axl) can be observed, when induced by the Axl ligand, Ga6.
The H1299 cells should be 40-80% confluent in the cell culture flask. Then cells are washed with DPBS and trypsinized. After centrifugation, the cell pellet is re-suspended with pre-warmed culture medium (RPMI1640, 10% FBS) and cells are separated by pipetting 6 times up and down with a 10 ml serological pipette. The cell suspension was diluted to a final concentration of 1.25×10^5 cells/ml. Then 80 μl/well cell suspension is added to the plate. Cell-plates are incubated at 37° C./5% CO2 overnight. Compounds were dissolved by DMSO to 10 mM, and kept in nitrogen cabinet. Prepare the compounds stock plate, the reference compounds concentration starts at 0.50 mM (5 μl+95 μl DMSO), and the tested compounds start at 1.5 mM (6 μl+34 μl DMSO); Then make a 3-fold dilution series (10 doses) compounds. Then dilute compounds by the medium in the mid plate (2 μl compounds+198 μl medium). Transfer 20 μl diluted compounds from mid plate to the cell coated plate. Cell-plates are incubated at 37° C./5% CO2 for 24 h. Add 25 μl of Human Gas6 (1000 ng/ml) to 96-well plate; the final concentration of Human Gas6 is 200 ng/ml. Incubate the plates at 37° C./5% CO2 for 1 h. Remove medium and wash cells once with 300 ul/well ice-cold 1×PBS. Then remove PBS and add 100 μl/well ice-cold 1× Cell Lysis Buffer to 96-well plate. The plate is shaken for 40 min at 4° C. Then plates can be stored at −20° C. After the micro-wells strips have reached room temperature, break off the required number of micro-wells. Place the micro-wells in the strip holder. Unused micro-wells must be resealed and stored at 4° C. immediately. Add 60 μl of cell lysate to the appropriate well. Seal with tape and press firmly onto top of micro-wells. Incubate the plate at 37° C. for 2 h. Gently remove the tape and wash wells 5 times with 1× Wash Buffer, 300 μl each time for each well. Add 100 μl of reconstituted Detection Antibody (green color) to each well. Seal with tape and incubate the plate at 37° C. for 1 h. Repeat wash procedure. Add 100 μl of reconstituted HRP Linked secondary antibody to each well. Seal with tape and incubate the plate at 37° C. for 30 min. Repeat wash procedure. Add 100 μl of TMB Substrate to each well. Seal with tape and incubate the plate at 37° C. for 15 min. Add 100 μl of STOP Solution to each well. Shake gently for a few seconds. Read absorbance at 450 nm within 30 min after adding STOP Solution. Calculations and Formulas: The following calculations and formulas are used for data analysis using XL Fit software: The curve fitting was made using the Sigmoidal Dose-Response Model (Fit model, 205).
In general terms: In an ELISA, binding on a coated surface is turned into a signal by an enzyme label.

[1] abbreviates: Elisa, comparison of compounds of present invention (**) vs compounds of WO2016/166250 (*), read-out: Cellular activity Axl (H1299) (IC50).
The mark [2] stands for this setting: read-out: Cellular Axl activity by H1299 Elisa (IC50).

Like-named read-outs stand apart in the source and are kept apart here.

Regarding `CCn1cc(OCC(F)(F)F)c(C(=O)Nc2ccc(Oc3ccnc4cc(OC)c(OC)cc34)cn2)n1` [Compound 4], the IC50 – broadly, the concentration that inhibits the measured activity by half – in the assay with CSF1R (M-NFS-60 cells) is below 1 µM; at Axl (setting [1]) it was 0.0034 µM; at Axl (setting [2]) it was below 0.5 µM.
Consider `CCn1cc(OC(C)C)c(C(=O)Nc2ccc(Oc3ccnc4cc(OC)c(OC)cc34)cn2)n1` [Compound 6], for which the half-inhibitory concentration (IC50) was below 1 µM in the assay on CSF1R (M-NFS-60 cells) and below 0.5 µM on Axl (setting [2]).
For `CCCn1cc(OCC(F)(F)F)c(C(=O)Nc2ccc(Oc3ccnc4cc(OC)c(OC)cc34)cn2)n1` [Compound 7], the IC50 with CSF1R (M-NFS-60 cells) is below 1 µM; on Axl (setting [2]), below 0.5 µM.
Take `CCn1cc(OCC2CCC2)c(C(=O)Nc2ccc(Oc3ccnc4cc(OC)c(OC)cc34)cn2)n1` [Compound 8]: the half-maximal inhibitory concentration (IC50) was below 1 µM with CSF1R (M-NFS-60 cells) and below 0.5 µM on Axl (setting [2]).
On the same counts, the results for `COc1cc2nccc(Oc3ccc(NC(=O)c4nn(CCN(C)C)cc4OCC(F)(F)F)nc3)c2cc1OC` [Compound 9] are below 1 µM and below 0.5 µM.
For `COCCn1cc(OCC(F)(F)F)c(C(=O)Nc2ccc(Oc3ccnc4cc(OC)c(OC)cc34)cn2)n1` [Compound 10], the IC50 with CSF1R (M-NFS-60 cells) was below 1 µM; on Axl (setting [1]) it was 0.0052 µM; at Axl (setting [2]) it was below 0.5 µM.
For `CNCCn1cc(OCC(F)(F)F)c(C(=O)Nc2ccc(Oc3ccnc4cc(OC)c(OC)cc34)cn2)n1` [Compound 11], the values for the concentration for half-maximal inhibition (IC50) in the assay with CSF1R (M-NFS-60 cells) and on Axl (setting [2]) were below 1 µM and below 0.5 µM, respectively.
The corresponding values for `CCCn1cc(OCC(F)F)c(C(=O)Nc2ccc(Oc3ccnc4cc(OC)c(OC)cc34)cn2)n1` [Compound 12] are below 1 µM and below 0.5 µM.
In the case of `COc1cc2nccc(Oc3ccc(NC(=O)c4n[nH]cc4OCC(F)(F)F)nc3)c2cc1OC` [Compound 16], the figures for the 50% inhibitory concentration (IC50) in the assay with CSF1R (M-NFS-60 cells), at Axl (setting [1]) and on Axl (setting [2]) were below 1 µM, 0.044 µM and below 0.5 µM, respectively.
On the same counts, the results for `COc1cc2nccc(Oc3ccc(NC(=O)c4nn(CC5COC5)cc4OCC(F)(F)F)nc3)c2cc1OC` [Compound 92] are below 1 µM, 0.0039 µM and below 0.5 µM.
For the compound `COc1cc2nccc(Oc3ccc(NC(=O)c4nn(C5CCN(C)C5)cc4OCC(F)(F)F)cc3F)c2cc1OC` (stereo not drawn) [Compound 96], the 50% inhibitory concentration (IC50) with CSF1R (M-NFS-60 cells) was 1 to 10 µM; on Axl (setting [2]), below 0.5 µM.
On the same counts, the results for `COc1cc2nccc(Oc3ccc(NC(=O)c4nn(CC5COC5)cc4OCC(F)(F)F)cc3F)c2cc1OC` [Compound 97] are 1 to 10 µM and below 0.5 µM.
For `COc1cc2nccc(Oc3ccc(NC(=O)c4nn(C5CCN(C)C5)cc4OCC(F)(F)F)cc3C)c2cc1OC` (stereo not drawn) [Compound 98], the IC50 in the assay on CSF1R (M-NFS-60 cells) is 1 to 10 µM; on Axl (setting [2]), at least 1 µM.
As for `COc1cc2nccc(Oc3ccc(NC(=O)c4nn(CC5COC5)cc4OCC(F)(F)F)cc3C)c2cc1OC` [Compound 99], the 50% inhibitory concentration (IC50) in the assay on CSF1R (M-NFS-60 cells) was 1 to 10 µM; on Axl (setting [2]), below 0.5 µM.
On the same counts, the results for `COc1cc2nccc(Oc3ccc(NC(=O)c4nn(C5CCN(C)C5)cc4OCC(F)(F)F)cc3)c2cc1OC` (stereo not drawn) [Compound 100] are 1 to 10 µM and 0.5 to 1 µM.
On the same counts, the results for `COc1cc2nccc(Oc3ccc(NC(=O)c4nn(CC5COC5)cc4OCC(F)(F)F)cc3)c2cc1OC` [Compound 101] are 1 to 10 µM and below 0.5 µM.
As to `COc1cc2nccc(Oc3ccc(NC(=O)c4nn(C)cc4OCC(F)(F)F)nn3)c2cc1OC` [Compound 102], the results for the IC50 in the assay with CSF1R (M-NFS-60 cells) and at Axl (setting [2]) were 1 to 10 µM and at least 1 µM, respectively.
On the same counts, the results for `COc1cc2nccc(Oc3ccc(NC(=O)c4nn(CC(C)C)cc4OCC(F)(F)F)cn3)c2cc1OC` [Compound 103] are 1 to 10 µM and below 0.5 µM.
On the same counts, the results for `COCCn1cc(OCC(F)(F)F)c(C(=O)Nc2ccc(Oc3ccnc4cc(OC)c(OC)cc34)nc2)n1` [Compound 104] are at least 10 µM and 0.5 to 1 µM.
On the same counts, the results for `CCCn1cc(OCCOC)c(C(=O)Nc2ccc(Oc3ccnc4cc(OC)c(OC)cc34)cn2)n1` [Compound 105] are below 1 µM and below 0.5 µM.
`CCCn1cc(OCC2COC2)c(C(=O)Nc2ccc(Oc3ccnc4cc(OC)c(OC)cc34)cn2)n1` [Compound 106]: the concentration for half-maximal inhibition (IC50) was below 1 µM in the assay with CSF1R (M-NFS-60 cells) and below 0.5 µM at Axl (setting [2]).
The corresponding values for `COCCOc1cn(C2CC2)nc1C(=O)Nc1ccc(Oc2ccnc3cc(OC)c(OC)cc23)cn1` [Compound 107] are 1 to 10 µM and below 0.5 µM.
With `COc1cc2nccc(Oc3ccc(NC(=O)c4nn(C5CC5)cc4OC(C)C)nc3)c2cc1OC` [Compound 108], the concentration for half-maximal inhibition (IC50) was below 1 µM in the assay on CSF1R (M-NFS-60 cells) and below 0.5 µM at Axl (setting [2]).
On the same counts, the results for `COc1cc2nccc(Oc3ccc(NC(=O)c4nn(C5CC5)cc4OCC(F)F)nc3)c2cc1OC` [Compound 109] are below 1 µM and below 0.5 µM.
On to `COc1cc2nccc(Oc3ccc(NC(=O)c4nn(C5CC5)cc4OCCF)nc3)c2cc1OC` [Compound 110], for which the IC50 in the assay on CSF1R (M-NFS-60 cells) is below 1 µM; on Axl (setting [2]), below 0.5 µM.
The corresponding values for `COc1cc2nccc(Oc3ccc(NC(=O)c4nn(C5CC5)cc4OCC4CCC4)nc3)c2cc1OC` [Compound 111] are 1 to 10 µM and below 0.5 µM.
On the same counts, the results for `COc1cc2nccc(Oc3ccc(NC(=O)c4nn(C5CC5)cc4OCC(F)(F)F)nn3)c2cc1OC` [Compound 112] are 1 to 10 µM and below 0.5 µM.
As to `COc1cc2nccc(Oc3ccc(NC(=O)c4nn(C5CC5)cc4OCCF)nn3)c2cc1OC` [Compound 113], the 50% inhibitory concentration (IC50) is 1 to 10 µM in the assay on CSF1R (M-NFS-60 cells) and below 0.5 µM on Axl (setting [2]).
